According to BindingDB's records for doi:10.1021/acs.jmedchem.9b00846 (2019):

Legend:
[1] = Binding affinity to cereblon in human RV4:11/IRMI-2 cells harboring p53 hotspot mutation Y236H/R249G assessed as cell growth inhibition measured after 4 days
[2] = Binding affinity to cereblon in human RV4:11/IRMI-2 cells harboring p53 hotspot mutation Y236H/R249G assessed as reduction in cell growth inhibition measured after 4 days in presence of 30 uM lenalidomide
[3] = Binding affinity to cereblon in human RV4:11/IRMI-2 cells harboring p53 hotspot mutation Y236H/R249G assessed as reduction in cell growth inhibition measured after 4 days in presence of 100 uM lenalidomide
[4] = Binding affinity to cereblon in human MDA-MB-231 cells assessed as reduction in cell growth inhibition measured after 4 days in presence of 10 uM of lenalidomide
[5] = Binding affinity to cereblon in human RV4:11 cells expressing wild type p53 assessed as reduction in cell growth inhibition measured after 4 days in presence of 100 uM lenalidomide
[6] = Binding affinity to cereblon in human RV4:11 cells expressing wild type p53 assessed as reduction in cell growth inhibition measured after 4 days in presence of 10 uM lenalidomide
[7] = Binding affinity to cereblon in human MDA-MB-468 cells assessed as reduction in cell growth inhibition measured after 4 days in presence of 100 uM lenalidomide
[8] = Binding affinity to cereblon in human MDA-MB-468 cells assessed as reduction in cell growth inhibition measured after 4 days in presence of 30 uM lenalidomide
[9] = Binding affinity to cereblon in human RV4:11 cells expressing wild type p53 assessed as reduction in cell growth inhibition measured after 4 days in presence of 30 uM lenalidomide
[10] = Binding affinity to cereblon in human MDA-MB-231 cells assessed as reduction in cell growth inhibition measured after 4 days in presence of 30 uM of lenalidomide
[11] = Binding affinity to cereblon in human RV4:11 cells expressing wild type p53 assessed as cell growth inhibition measured after 4 days
[12] = Binding affinity to cereblon in human MDA-MB-468 cells assessed as reduction in cell growth inhibition measured after 4 days in presence of 10 uM lenalidomide
[13] = Binding affinity to cereblon in human MDA-MB-231 cells assessed as reduction in cell growth inhibition measured after 4 days in presence of 100 uM of lenalidomide
[14] = Binding affinity to cereblon in human RV4:11/IRMI-2 cells harboring p53 hotspot mutation Y236H/R249G assessed as reduction in cell growth inhibition measured after 4 days in presence of 10 uM lenalidomide
[15] = Binding affinity to cereblon in human MDA-MB-231 cells assessed as cell growth inhibition measured after 4 days
[16] = Binding affinity to cereblon in human MDA-MB-468 cells assessed as cell growth inhibition measured after 4 days

IC50 [1]	IC50 [2]	IC50 [3]	IC50 [4]	IC50 [5]	IC50 [6]	IC50 [7]	IC50 [8]	IC50 [9]	IC50 [10]	IC50 [11]	IC50 [12]	IC50 [13]	IC50 [14]	IC50 [15]	IC50 [16]	Compound
3.1 nM	400 nM	982 nM	623 nM	496 nM	96 nM	2070 nM	964 nM	211 nM	1370 nM	2 nM	419 nM	2140 nM	168 nM	–	–	O=C1CCC(N2Cc3c(CCCCCNC(=O)[C@@H]4NC5(CCCCC5)[C@@]5(C(=O)Nc6cc(Cl)ccc65)[C@H]4c4cccc(Cl)c4F)cccc3C2=O)C(=O)N1 (stereo partly specified)
> 10000 nM	–	–	–	–	–	–	–	–	–	5.5 nM	–	–	–	> 10000 nM	> 10000 nM	O=C1CCC(N2Cc3c(CCCCCNC(=O)c4ccc(NC(=O)[C@@H]5NC6(CCCCC6)[C@@]6(C(=O)Nc7cc(Cl)ccc76)[C@H]5c5cccc(Cl)c5F)cc4)cccc3C2=O)C(=O)N1 (stereo partly specified)
> 10000 nM	–	–	–	–	–	–	–	–	–	–	–	–	–	> 10000 nM	> 10000 nM	CNC(=O)[C@@H]1NC2(CCCCC2)[C@@]2(C(=O)Nc3cc(Cl)ccc32)[C@H]1c1cccc(Cl)c1F [US8629141, 21]
